Non-standard residues stand in square brackets, D forms with d. Residues, ends and D or L forms follow the SMILES beside them. 3Abz = Nc1cccc(C(=O)O)c1; 4Abz = Nc1ccc(C(=O)O)cc1; 2Abz = Nc1ccccc1C(=O)O; Ava = NCCCCC(=O)O
What was measured:
GPR8 [1] = target: T1, GPR8 (Homo sapiens, UniProt P48146); assay: Binding inhibition test with [125I]-[Phe2]-hNPW(1-23), GPR8 membrane preparation
T1 construct: expressed in transfected cells; host or cells: HEK293/CRE-BLA cells (AURORA), expression vector pIRES-hygro (Clontech)
Protocol: (§1) One nmol of [Phe2]-hNPW(1-23) (prepared in Synthesis Example 19) was dissolved in 5 µL of anhydrous DMSO, and the solution was mixed with 0.1M nickel chloride. Then, the mixture was mixed with 10 µL of a 0.00 1 % aqueous solution of hydrogen peroxide, 10 µL of an enzyme solution (lactoperoxidase (Sigma) adjusted to 10 µg/mL with a 0.1M HEPES buffer solution), and 37 Mbq/10 µL of Iodine-125 (Amersham), whereafter the resulting mixture was reacted for 60 minutes at room temperature. The reaction was terminated with the addition of 10 µL of 1% sodium azide, and then a radiolabeled peptide fraction was collected by a PD-10 gel filtration column (Amersham) to obtain [^125I]-[Phe2]-hNPW(1-23).
(§2) A cDNA sequence coding for human GPR7 or GPR8 [see Genomics, vol. 28, p. 84 (1995)] was amplified by the PCR method, and cloned using the expression vector pIRES-hygro (Clontech). The resulting expression vector was transfected into HEK293/CRE-BLA cells (AURORA) using the cationic lipid method [see Proceedings of the National Academy of Sciences of the United States of America, vol. 84, p. 7413 (1987)] to obtain GPR7 or GPR8 expression cells.
(§3) A membrane preparation prepared from the cells expressing GPR7 or GPR8 was incubated for 1 hour at room temperature in an assay buffer solution (25 mM Tris buffer solution, 150 mM NaCl, pH 7.4) together with a test compound and 28,000 cpm of [^125I]-[Phe2]-hNPW(1-23). Then, the system was filtered through the glass filter GF/C. After washing with 25 mM Tris buffer solution (pH 7.4), radioactivity on the glass filter was measured. Nonspecific binding was measured in the presence of 1 µM hNPW (prepared in Synthesis Example 1), and the 50% inhibition concentration (IC50 value) of the test compound against [Phe2]-hNPW(1-23) specific binding was calculated [see Molecular Pharmacology, vol. 55, 1101 (1999)].

GPR7 [2] = target: T2, GPR7 (Homo sapiens, UniProt P48145); assay: Binding inhibition test with [125I]-[Phe2]-hNPW(1-23), GPR7 membrane preparation
T2 construct: expressed in transfected cells; host or cells: HEK293/CRE-BLA cells (AURORA), expression vector pIRES-hygro (Clontech)
T2 sequence (P48145 1-328): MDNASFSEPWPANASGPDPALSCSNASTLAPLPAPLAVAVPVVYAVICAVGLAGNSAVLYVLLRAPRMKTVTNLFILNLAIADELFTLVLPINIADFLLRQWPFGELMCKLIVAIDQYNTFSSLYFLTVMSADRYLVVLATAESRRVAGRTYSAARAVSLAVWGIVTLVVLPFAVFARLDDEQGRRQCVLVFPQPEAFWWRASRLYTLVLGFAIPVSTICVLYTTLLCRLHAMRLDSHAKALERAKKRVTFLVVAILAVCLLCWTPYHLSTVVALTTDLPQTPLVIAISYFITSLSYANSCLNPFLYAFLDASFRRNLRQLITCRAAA
Protocol: as §1, §2, §3

GPR7 [3] = target: T2, GPR7; assay: Measurement of activation capacity on GPR7 (CRE-BLA beta-lactamase reporter assay); assay type: cell-based; settings: Table 1; HEK293/CRE-BLA cells expressing GPR7; forskolin 1 µM; 3 hours at 37°C
Description: as §2
(§4) In accordance with the method of Zlakarmik (see Science, 1998, vol. 279, p. 84), the activity of various synthetic peptides on GPR7 or GPR8 was measured. HEK293/CRE-BLA cells which expressed GPR7 or GPR8 (prepared in (2) of Test Example 1) were washed twice with PBS(-) buffer solution (GIBCO-BRL), and then Cell-dissociation buffer (GIBCO-BRL) was added. The system was kept at 37°C for 3 minutes in a CO2 incubator, and a culture flask was tapped to liberate the cells from the flask. After the cells were harvested by centrifugation, the cells were suspended in an Opti-MEM culture medium (GIBCO-BRL) containing 0.1 % BSA (Sigma) to count the cells and prepare a cell suspension containing 8×10^5 cells/mL. To 2 µL of a DMSO solution containing each test compound with a concentration of 50 times an end concentration, 50 µL of the 0.1% BSA-containing Opti-MEM medium incorporating forskolin (Sigma) so as to have an end concentration of 1 µM was added to form a reaction solution. To this reaction solution, 50 µL of the above cell suspension was added to initiate the reaction, and the system was incubated for 3 hours at 37°C in a CO2 incubator.
(§5) Then, using a BLA assay kit (AURORA), a coloring matter-introduced buffer solution incorporating 12 µL of Solution A [1 mM CCF2-AM/anhydrous DMSO solution], 120 µL of Solution B [100 mg/mL Pluronic 127, 0.1% acetic acid/DMSO solution], and 2 mL of Solution C [24% (w/w) PEG-400, 18% TR40/H2O] was prepared. This coloring matter-introduced buffer solution (20 µL) was added to the above-mentioned cell reaction mixture to introduce a β-lactamase substrate (CCF2-AM) into the cells. After the system was allowed to stand for 1 hour at room temperature, the fluorescence intensities of the sample at an excitation wavelength of 409 nm, at a fluorescence wavelength of 460 nm (a β-lactamase hydrolyzate of CCF), and at 530 nm (CCF) were measured. With β-lactamase activity (fluorescence intensity at 460 nm/fluorescence intensity at 530 nm) as an indicator, the activity of each of various peptides on GPR7 or GPR8 was measured, and the 50% effective concentration (EC50) of the test compound was calculated.

GPR8 [4] = target: T1, GPR8; assay: Measurement of activation capacity on GPR8 (CRE-BLA beta-lactamase reporter assay); assay type: cell-based; settings: Table 1; HEK293/CRE-BLA cells expressing GPR8; forskolin 1 µM; 3 hours at 37°C; read-out: GPR8 (nM) EC 50
Description: as §2, §4, §5

[5] = Table 2, membrane preparation of cells expressing GPR8
[6] = Table 2, membrane preparation of cells expressing GPR7
[7] = Table 1, membrane preparation of HEK293/CRE-BLA cells expressing GPR8, 1 hour at room temperature
[8] = Table 1, membrane preparation of HEK293/CRE-BLA cells expressing GPR7, 1 hour at room temperature

T1 sequence (P48146 whole entry): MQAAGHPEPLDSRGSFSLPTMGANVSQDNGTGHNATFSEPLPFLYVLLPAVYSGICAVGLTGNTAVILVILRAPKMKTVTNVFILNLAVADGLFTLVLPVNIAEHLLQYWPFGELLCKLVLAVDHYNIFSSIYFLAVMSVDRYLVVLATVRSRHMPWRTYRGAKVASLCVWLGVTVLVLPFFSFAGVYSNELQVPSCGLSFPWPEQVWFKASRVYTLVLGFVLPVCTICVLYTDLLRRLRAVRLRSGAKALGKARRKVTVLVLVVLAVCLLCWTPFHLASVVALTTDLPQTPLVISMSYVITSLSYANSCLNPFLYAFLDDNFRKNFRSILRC

Row | IC50 (GPR8 [1]; [7]) [nM] | IC50 (GPR7 [2]; [8]) [nM] | EC50 (GPR7 [3]) [nM] | EC50 (GPR8 [4]) [nM] | SMILES | IC50 (GPR8 [1]; [5]) [nM] | IC50 (GPR7 [2]; [6]) [nM]
1 |  |  |  |  | CC(C)C[C@H](NC(=O)CNC(=O)[C@H](CO)NC(=O)[C@H](CC(C)C)NC(=O)[C@H](CC(C)C)NC(=O)CNC(=O)[C@H](C)NC(=O)[C@H](C)NC(=O)[C@H](CCCNC(=N)N)NC(=O)CNC(=O)CCCCNC(=O)CCCCNC(=O)c1ccc(NC(=O)[C@H](CCCCN)NC(=O)[C@H](Cc2ccc(O)cc2)NC(=O)[C@@H](N)Cc2c[nH]c3ccccc23)cc1)C(N)=O [compound 18] (H-WYK[4Abz][Ava][Ava]GRAAGLLSGL-NH2) | 190 | 5.6
2 |  |  |  |  | CC(C)C[C@H](NC(=O)CNC(=O)[C@H](CO)NC(=O)[C@H](CC(C)C)NC(=O)[C@H](CC(C)C)NC(=O)CNC(=O)[C@H](C)NC(=O)[C@H](C)NC(=O)[C@H](CCCNC(=N)N)NC(=O)CNC(=O)CCCCNC(=O)c1ccccc1NC(=O)CCCCNC(=O)[C@H](CCCCN)NC(=O)[C@H](Cc1ccc(O)cc1)NC(=O)[C@@H](N)Cc1c[nH]c2ccccc12)C(N)=O [compound 13] (H-WYK[Ava][2Abz][Ava]GRAAGLLSGL-NH2) | 39 | 0.56
3 | 260 | 0.09 | 0.48 | 77 | CC(C)C[C@H](NC(=O)CNC(=O)[C@H](CO)NC(=O)[C@H](CC(C)C)NC(=O)[C@H](CC(C)C)NC(=O)CNC(=O)[C@H](C)NC(=O)[C@H](C)NC(=O)[C@H](CCCNC(=N)N)NC(=O)CNC(=O)CCCCNC(=O)CCCCNC(=O)CCCCNC(=O)[C@H](CCCCN)NC(=O)[C@H](Cc1ccc(O)cc1)NC(=O)[C@@H](N)Cc1c[nH]c2ccccc12)C(N)=O [compound 7] (H-WYK[Ava][Ava][Ava]GRAAGLLSGL-NH2) |  | 
4 |  |  |  |  | CC(C)C[C@H](NC(=O)CNC(=O)[C@H](CO)NC(=O)[C@H](CC(C)C)NC(=O)[C@H](CC(C)C)NC(=O)CNC(=O)[C@H](C)NC(=O)[C@H](C)NC(=O)[C@H](CCCNC(=N)N)NC(=O)CNC(=O)CCCCNC(=O)CCCCNC(=O)c1ccccc1NC(=O)[C@H](CCCCN)NC(=O)[C@H](Cc1ccc(O)cc1)NC(=O)[C@@H](N)Cc1c[nH]c2ccccc12)C(N)=O [compound 16] (H-WYK[2Abz][Ava][Ava]GRAAGLLSGL-NH2) | 160 | 1.3
5 |  |  |  |  | CC(C)C[C@H](NC(=O)CNC(=O)[C@H](CO)NC(=O)[C@H](CC(C)C)NC(=O)[C@H](CC(C)C)NC(=O)CNC(=O)[C@H](C)NC(=O)[C@H](C)NC(=O)[C@H](CCCNC(=N)N)NC(=O)CNC(=O)c1ccc(NC(=O)CCCCNC(=O)CCCCNC(=O)[C@H](CCCCN)NC(=O)[C@H](Cc2ccc(O)cc2)NC(=O)[C@@H](N)Cc2c[nH]c3ccccc23)cc1)C(N)=O [compound 12] (H-WYK[Ava][Ava][4Abz]GRAAGLLSGL-NH2) | 5.1 | 0.35
6 | 2600 | > 100 |  |  | CC(C)C[C@H](NC(=O)CNC(=O)[C@H](CO)NC(=O)[C@H](CC(C)C)NC(=O)[C@H](CC(C)C)NC(=O)CNC(=O)[C@H](C)NC(=O)[C@H](C)NC(=O)[C@H](CCCNC(=N)N)NC(=O)CNC(=O)CCCCNC(=O)CCCCNC(=O)CCCCNC(=O)CCCCNC(=O)CCCCNC(=O)[C@H](CCCCN)NC(=O)[C@H](Cc1ccc(O)cc1)NC(=O)[C@@H](N)Cc1c[nH]c2ccccc12)C(N)=O [compound 9] (H-WYK[Ava][Ava][Ava][Ava][Ava]GRAAGLLSGL-NH2) |  | 
7 |  |  |  |  | CC(C)C[C@H](NC(=O)CNC(=O)[C@H](CO)NC(=O)[C@H](CC(C)C)NC(=O)[C@H](CC(C)C)NC(=O)CNC(=O)[C@H](C)NC(=O)[C@H](C)NC(=O)[C@H](CCCNC(=N)N)NC(=O)CNC(=O)c1cccc(NC(=O)CCCCNC(=O)CCCCNC(=O)[C@H](CCCCN)NC(=O)[C@H](Cc2ccc(O)cc2)NC(=O)[C@@H](N)Cc2c[nH]c3ccccc23)c1)C(N)=O [compound 11] (H-WYK[Ava][Ava][3Abz]GRAAGLLSGL-NH2) | 13 | 0.37
8 |  |  |  |  | CC(C)C[C@H](NC(=O)CNC(=O)[C@H](CO)NC(=O)[C@H](CC(C)C)NC(=O)[C@H](CC(C)C)NC(=O)CNC(=O)[C@H](C)NC(=O)[C@H](C)NC(=O)[C@H](CCCNC(=N)N)NC(=O)CNC(=O)CCCCNC(=O)c1cccc(NC(=O)CCCCNC(=O)[C@H](CCCCN)NC(=O)[C@H](Cc2ccc(O)cc2)NC(=O)[C@@H](N)Cc2c[nH]c3ccccc23)c1)C(N)=O [compound 14] (H-WYK[Ava][3Abz][Ava]GRAAGLLSGL-NH2) | 16 | 0.19
9 |  |  |  |  | CC(C)C[C@H](NC(=O)CNC(=O)[C@H](CO)NC(=O)[C@H](CC(C)C)NC(=O)[C@H](CC(C)C)NC(=O)CNC(=O)[C@H](C)NC(=O)[C@H](C)NC(=O)[C@H](CCCNC(=N)N)NC(=O)CNC(=O)c1ccccc1NC(=O)CCCCNC(=O)CCCCNC(=O)[C@H](CCCCN)NC(=O)[C@H](Cc1ccc(O)cc1)NC(=O)[C@@H](N)Cc1c[nH]c2ccccc12)C(N)=O [compound 10] (H-WYK[Ava][Ava][2Abz]GRAAGLLSGL-NH2) | 8000 | 4.7
10 |  |  |  |  | CC(C)C[C@H](NC(=O)CNC(=O)[C@H](CO)NC(=O)[C@H](CC(C)C)NC(=O)[C@H](CC(C)C)NC(=O)CNC(=O)[C@H](C)NC(=O)[C@H](C)NC(=O)[C@H](CCCNC(=N)N)NC(=O)CNC(=O)CCCCNC(=O)CCCCNC(=O)c1cccc(NC(=O)[C@H](CCCCN)NC(=O)[C@H](Cc2ccc(O)cc2)NC(=O)[C@@H](N)Cc2c[nH]c3ccccc23)c1)C(N)=O [compound 17] (H-WYK[3Abz][Ava][Ava]GRAAGLLSGL-NH2) | 33 | 0.34
11 |  |  |  |  | CC(C)C[C@H](NC(=O)CNC(=O)[C@H](CO)NC(=O)[C@H](CC(C)C)NC(=O)[C@H](CC(C)C)NC(=O)CNC(=O)[C@H](C)NC(=O)[C@H](C)NC(=O)[C@H](CCCNC(=N)N)NC(=O)CNC(=O)CCCCNC(=O)c1ccc(NC(=O)CCCCNC(=O)[C@H](CCCCN)NC(=O)[C@H](Cc2ccc(O)cc2)NC(=O)[C@@H](N)Cc2c[nH]c3ccccc23)cc1)C(N)=O [compound 15] (H-WYK[Ava][4Abz][Ava]GRAAGLLSGL-NH2) | 34 | 0.4

Reference: patent EP1816136A1, “GPR7-SELECTIVE LIGAND AND USE THEREOF” (BANYU PHARMACEUTICAL CO., LTD., priority 2004, dated 2006)
